The values that follow come from ChEMBL document CHEMBL1201862, “PubChem BioAssay data set” (2004).

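Cells were grown in 96-well plates and exposed to each compound for 48 hours at five concentrations; endpoints were interpolated linearly between bracketing concentrations, or set to the highest concentration if not reached. GI50 is the concentration that inhibits growth by half.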 The source made the active and inactive calls. Cut-off read from the data, not from the text of the source: active = GI50 up to about 1.1 µM and inactive = higher.

Test systems include IGROV-1; ACHN; KM12; 786-0; HT-29; HCC 2998; MDA-MB-231; TK-10; HOP-92; OVCAR-4; MDA-N; LOX IMVI; T47D; NCI-H460; OVCAR-8; M14; HCT-116; UACC-62; SF-295; CAKI-1.
Common to all, as to assay: inhibition of tumour cell growth, NCI panel, 48 h

For `CNC(=O)CC1NC(=O)c2csc(n2)-c2ccc(-c3nc(C4=NC(C(=O)N5CCCC5C(N)=O)CO4)cs3)nc2-c2csc(n2)-c2csc(n2)C(C(C)C)NC(=O)CNC(=O)c2csc(n2)C(C(C)C)NC(=O)c2nc1sc2C` (stereo unspecified), the GI50 with IGROV-1 is 0.00175 µM (active); in the assay with ACHN it was 4.37 µM (inactive); with KM12, 0.0171 µM (active); in the assay with 786-0, 0.0214 µM (active); in the assay on HT-29, > 25 µM (inactive); with HCC 2998, 0.00762 µM (active). Also, the GI50 with MDA-MB-231 was 0.0153 µM (active); in the assay with TK-10 it was 0.0386 µM (active); in the assay with HOP-92, 0.968 µM (active); with OVCAR-4 it was 4.33 µM (inactive); in the assay with MDA-N, > 25 µM (inactive); in the assay on LOX IMVI it was 0.00191 µM (active). Further, the GI50 in the assay on T47D is 0.0033 µM (active); in the assay on NCI-H460 it was 0.00194 µM (active); with OVCAR-8 it was 0.00485 µM (active); in the assay on M14, 0.0123 µM (active); with HCT-116 it was 0.00114 µM (active); with UACC-62, 0.00438 µM (active). The GI50 in the assay with SF-295 was 0.021 µM (active); in the assay on CAKI-1, 0.436 µM (active).
As for `CCSCCCCC(c1ccc(O)cc1)C(C)(CC)c1ccc(O)cc1` (stereo unspecified), the GI50 in the assay on IGROV-1 was 16.9 µM (inactive); in the assay on ACHN, 18.6 µM (inactive); in the assay with KM12, 21.6 µM (inactive); in the assay on 786-0, 24.4 µM (inactive); in the assay on HCC 2998 it was 15.3 µM (inactive); with MDA-MB-231, 21.7 µM (inactive). Also, the GI50 is 17.4 µM (inactive) with TK-10; 19.3 µM (inactive) in the assay on HOP-92; 21.7 µM (inactive) in the assay on OVCAR-4; 23.2 µM (inactive) in the assay on MDA-N; 17.6 µM (inactive) in the assay on LOX IMVI; 14.4 µM (inactive) in the assay on T47D. For the same compound, the GI50 in the assay with NCI-H460 is 30.1 µM (inactive); with OVCAR-8, 19.3 µM (inactive); in the assay on M14, 31 µM (inactive); with HCT-116, 17.9 µM (inactive); in the assay with UACC-62, 27.2 µM (inactive); in the assay on SF-295, 31.3 µM (inactive). Besides, the GI50 in the assay with CAKI-1 was 35 µM (inactive).
As to `COc1ccccc1N1C(=O)CSC1c1cc(OC)c(OC)c(OC)c1` (stereo unspecified), the GI50 was 33 µM (inactive) in the assay on IGROV-1; > 100 µM (inactive) in the assay on ACHN; 21.3 µM (inactive) in the assay on KM12; 18.8 µM (inactive) in the assay on 786-0; > 100 µM (inactive) in the assay on HT-29; > 100 µM (inactive) in the assay with HCC 2998. Also, the GI50 in the assay with MDA-MB-231 was > 100 µM (inactive); in the assay on TK-10, > 100 µM (inactive); with HOP-92 it was 50.9 µM (inactive); with OVCAR-4, > 77.8 µM (inactive); with MDA-N it was 11.9 µM (inactive); in the assay on LOX IMVI, 35.6 µM (inactive). Also, the GI50 with T47D was 12.4 µM (inactive); in the assay with NCI-H460, > 100 µM (inactive); in the assay with OVCAR-8, > 100 µM (inactive); with M14 it was > 88.5 µM (inactive); in the assay on HCT-116 it was 13.3 µM (inactive); in the assay with UACC-62, 20.5 µM (inactive). Also, the GI50 in the assay on SF-295 was > 30.4 µM (inactive); in the assay on CAKI-1, > 35 µM (inactive).
Regarding `Cc1cc(/N=C/c2ccc(Cl)cc2)n(-c2ccccc2)n1`, the GI50 with IGROV-1 is 45.7 µM (inactive); in the assay on ACHN it was 47.2 µM (inactive); with KM12, 23.4 µM (inactive); in the assay with 786-0, 37.3 µM (inactive); with HT-29, 23.4 µM (inactive); with HCC 2998, 24.9 µM (inactive). Moreover, the GI50 was > 100 µM (inactive) in the assay with MDA-MB-231; 40.3 µM (inactive) in the assay on TK-10; 48 µM (inactive) in the assay with HOP-92; 33.4 µM (inactive) in the assay with OVCAR-4; 32.2 µM (inactive) in the assay with MDA-N; 54.2 µM (inactive) with LOX IMVI. The GI50 in the assay on T47D is 16.7 µM (inactive); in the assay with NCI-H460, 43.1 µM (inactive); with OVCAR-8, 40.7 µM (inactive); with M14 it was 48.6 µM (inactive); with HCT-116 it was 26.2 µM (inactive); in the assay on UACC-62, 54.2 µM (inactive). The GI50 is 30.8 µM (inactive) in the assay on SF-295 and 39 µM (inactive) with CAKI-1.
On to `CC(O)C1(CNc2cc(Cl)nc(N)n2)CCC1` (stereo unspecified), for which the GI50 in the assay on IGROV-1, in the assay with ACHN, in the assay on KM12, in the assay on 786-0, in the assay on HT-29 and in the assay with HCC 2998 was > 100 µM (inactive) in each case. Moreover, the GI50 in the assay with MDA-MB-231, in the assay with TK-10, with HOP-92, in the assay with OVCAR-4, in the assay on MDA-N and in the assay with LOX IMVI was > 100 µM (inactive) each time. For the same compound, the GI50 was 33.3 µM (inactive) in the assay with T47D; > 100 µM (inactive) in the assay on NCI-H460; > 100 µM (inactive) in the assay with OVCAR-8; > 100 µM (inactive) in the assay on HCT-116; 89.9 µM (inactive) in the assay on UACC-62; > 100 µM (inactive) in the assay with SF-295. Further, the GI50 in the assay on CAKI-1 was > 100 µM (inactive).
On to `O=C(C1OC1c1cccc([N+](=O)[O-])c1)C12CC3CC(CC(C3)C1)C2` (stereo unspecified), for which the GI50 was 6.53 µM (inactive) in the assay with IGROV-1; 9.59 µM (inactive) in the assay on ACHN; 3.78 µM (inactive) in the assay with KM12; 2.69 µM (inactive) with 786-0; 3.39 µM (inactive) with HT-29; 6.73 µM (inactive) with HCC 2998. The GI50 in the assay on MDA-MB-231 is 4.83 µM (inactive); in the assay with TK-10, 18.1 µM (inactive); in the assay with HOP-92 it was 10.9 µM (inactive); in the assay on OVCAR-4, 4.27 µM (inactive); with MDA-N, 3.19 µM (inactive); with LOX IMVI it was 1.72 µM (inactive). Also, the GI50 in the assay on T47D is 11.7 µM (inactive); in the assay on NCI-H460, 4.06 µM (inactive); in the assay on OVCAR-8 it was 2.25 µM (inactive); in the assay with M14, 8.99 µM (inactive); with HCT-116, 2.14 µM (inactive); in the assay on UACC-62, 3.74 µM (inactive). The GI50 in the assay on SF-295 is 6.11 µM (inactive); in the assay with CAKI-1, 8.83 µM (inactive).
As to `CCOC(=O)c1cccc([N+](=O)[O-])c1N`, the GI50 in the assay with IGROV-1, in the assay on ACHN, with KM12, with 786-0, in the assay on HT-29 and with HCC 2998 was > 100 µM (inactive) throughout. For the same compound, the GI50 in the assay with MDA-MB-231, in the assay with TK-10, in the assay with HOP-92, in the assay on OVCAR-4, with MDA-N and with LOX IMVI was > 100 µM (inactive) each time. The GI50 with T47D, with NCI-H460, with OVCAR-8, in the assay on M14, in the assay with HCT-116 and with UACC-62 was > 100 µM (inactive) throughout. The GI50 in the assay with SF-295 and in the assay with CAKI-1 was > 100 µM (inactive) throughout.
Turning to `COC(=O)C1(CCC(=O)N(C)c2ccccc2)NNC2C(=O)N(c3ccccc3)C(=O)C21` (stereo unspecified), the GI50 in the assay on IGROV-1, with ACHN, in the assay with KM12, with 786-0, in the assay with HT-29 and in the assay with HCC 2998 was > 10 µM (inactive) in each case. The GI50 in the assay with MDA-MB-231, in the assay on TK-10, in the assay with HOP-92, with OVCAR-4, with MDA-N and with LOX IMVI was > 10 µM (inactive) in each case. Moreover, the GI50 in the assay on T47D, in the assay on NCI-H460, with OVCAR-8, in the assay on M14, with HCT-116 and in the assay on UACC-62 was > 10 µM (inactive) in each case. Also, the GI50 in the assay with SF-295 and with CAKI-1 was > 10 µM (inactive) in each case.
On to `O=c1cnn(C2OC(C(O)CO)C(O)C2O)c(=O)[nH]1` (stereo unspecified), for which the GI50 with IGROV-1, with ACHN, in the assay on KM12, with 786-0, with HT-29 and in the assay on HCC 2998 was > 100 µM (inactive) in each case. Also, the GI50 with MDA-MB-231, with TK-10, in the assay on HOP-92, in the assay with OVCAR-4, in the assay on MDA-N and in the assay on LOX IMVI was > 100 µM (inactive) in each case. The GI50 with T47D, in the assay on NCI-H460, with OVCAR-8, in the assay on M14, in the assay with HCT-116 and with UACC-62 was > 100 µM (inactive) in each case. Further, the GI50 in the assay with CAKI-1 is > 100 µM (inactive).
Consider `Cc1cn([C@@H]2C[C@@H]2CO)c(=O)[nH]c1=O`, for which the GI50 with IGROV-1, in the assay with ACHN, with KM12, in the assay with 786-0, with HT-29 and in the assay with HCC 2998 was > 100 µM (inactive) throughout. The GI50 in the assay on MDA-MB-231, with TK-10, in the assay with HOP-92, in the assay with OVCAR-4, with MDA-N and with LOX IMVI was > 100 µM (inactive) throughout. For the same compound, the GI50 in the assay with T47D, with NCI-H460, with OVCAR-8, with M14, with HCT-116 and with UACC-62 was > 100 µM (inactive) throughout. In addition, in the assay on CAKI-1, the GI50 is > 100 µM (inactive).
